System: diarrhea-predominant IBS subjects
Test: 3007 Study: open-label 52-week safety study, adverse events and withdrawals
Details: P/C group

## Cc1nccn1C[C@H]1CCc2c(c3cccc4c3n2CCC4)C1=O [cilansetron, (R)-(−)-4,5,6,8,9,10-hexahydro-10-[(2-methyl-1H-imidazol-1-yl)methyl]-11H-pyrido-[3,2,1-jk]-carbazol-11-one]
  TEAE: Dyspnoea NOS: 1 (<1%) n (%)
  TEAE: Dysuria: 0 n (%)
  TEAE: Ear Disorders NEC: 1 (<1%) n (%)
  TEAE: Ear Pain: 1 (<1%) n (%)
  TEAE: Ear and Labyrinth Disorders: 4 (1%) n (%)
  TEAE: Eczema: 1 (<1%) n (%)
  TEAE: Elevated Cholesterol: 3 (1%) n (%)
  TEAE: Endocrine Disorders: 2 (<1%) n (%)
  TEAE: Endometriosis*: 0 n (%)
  TEAE: Erythema: 0 n (%)
  TEAE: Erythemas: 0 n (%)
  TEAE: External Ear Disorders NEC: 0 n (%)
  TEAE: Eye Disorders: 5 (2%) n (%)
  TEAE: Fall: 2 (<1%) n (%)
  TEAE: Fatigue: 6 (2%) n (%)
  TEAE: Fatigue Aggravated: 0 n (%)
  TEAE: Febrile Disorders: 1 (<1%) n (%)
  TEAE: Fibroma NOS: 1 (<1%) n (%)
  TEAE: Fluid Intake Increased: 1 (<1%) n (%)
  TEAE: Fluid in Middle Ear: 0 n (%)
  TEAE: Flushing: 0 n (%)
  TEAE: Food Allergy: 1 (<1%) n (%)
  TEAE: General Disorders and Administration Site Conditions: 19 (7%) n (%)
  TEAE: General Signs and Symptoms NEC: 3 (1%) n (%)
  TEAE: Gilbert's Syndrome: 1 (<1%) n (%)
  TEAE: Glucose Tolerance Impaired: 1 (<1%) n (%)
  TEAE: Glycosuria: 1 (<1%) n (%)
  TEAE: Goitre: 0 n (%)
  TEAE: Gout: 0 n (%)
  TEAE: Haematoma NOS: 0 n (%)
  TEAE: Haematuria: 0 n (%)
  TEAE: Hallucination NOS: 1 (<1%) n (%)
  TEAE: Hallucination, Auditory: 1 (<1%) n (%)
  TEAE: Hand Fracture: 1 (<1%) n (%)
  TEAE: Hearing Losses: 0 n (%)
  TEAE: Hepatitis NOS: 0 n (%)
  TEAE: Hepatobiliary Disorders: 1 (<1%) n (%)
  TEAE: Hepatobiliary Signs and Symptoms: 0 n (%)
  TEAE: Hepatocellular Damage and Hepatitis NEC: 0 n (%)
  TEAE: Hepatosplenomegaly NOS: 0 n (%)
  TEAE: Hernia NOS: 1 (<1%) n (%)
  TEAE: Hernia Repair NOS: 0 n (%)
  TEAE: Hernia Repairs: 0 n (%)
  TEAE: Hernias NEC: 1 (<1%) n (%)
  TEAE: Hot Flushes NOS: 0 n (%)
  TEAE: Hypercholesterolaemia: 3 (1%) n (%)
  TEAE: Hyperglycaemia NOS: 3 (1%) n (%)
  TEAE: Hyperglycaemic Conditions NEC: 4 (1%) n (%)
  TEAE: Hyperkeratoses: 1 (<1%) n (%)
  TEAE: Hyperkeratosis: 1 (<1%) n (%)
  TEAE: Hyperlipidaemia NOS: 0 n (%)
  TEAE: Hyperlipidaemias NEC: 0 n (%)
  TEAE: Hypersensitivity NOS: 1 (<1%) n (%)
  TEAE: Hypertension Aggravated: 1 (<1%) n (%)
  TEAE: Hypertension NOS: 6 (2%) n (%)
  TEAE: Hypotension NOS: 1 (<1%) n (%)
  TEAE: Immune System Disorders: 4 (1%) n (%)
  TEAE: Inborn Errors of Bilirubin Metabolism: 1 (<1%) n (%)
  TEAE: Influenza Like Illness: 1 (<1%) n (%)
  TEAE: Ingrowing Nail: 1 (<1%) n (%)
  TEAE: Inner Ear Disorders NEC: 0 n (%)
  TEAE: Inner Ear Infections and Inflammations: 1 (<1%) n (%)
  TEAE: Inner Ear Signs and Symptoms: 2 (<1%) n (%)
  TEAE: Insomnia: 0 n (%)
  TEAE: Insomnia Exacerbated: 0 n (%)
  TEAE: Intermenstrual Bleeding*: 0 n (%)
  TEAE: Irritability: 1 (<1%) n (%)
  TEAE: Ischaemic Coronary Artery Disorders: 0 n (%)
  TEAE: Labyrinthitis NOS: 1 (<1%) n (%)
  TEAE: Lacrimal Disorders: 0 n (%)
  TEAE: Lactose Intolerance: 1 (<1%) n (%)
  TEAE: Laryngeal and Adjacent Sites Disorders NEC (Excl Infections and Neoplasms): 1 (<1%) n (%)
  TEAE: Laryngitis NOS: 1 (<1%) n (%)
  TEAE: Leiomyoma NOS: 0 n (%)
  TEAE: Lethargy: 1 (<1%) n (%)
  TEAE: Leukopenia NOS: 0 n (%)
  TEAE: Leukopenias NEC: 0 n (%)
  TEAE: Libido Decreased: 1 (<1%) n (%)
  TEAE: Lid, Lash and Lacrimal Structural Disorders (Excl Congenital): 0 n (%)
  TEAE: Lipid Metabolism Disorder NOS: 0 n (%)
  TEAE: Lipid Metabolism and Deposit Disorders NEC: 0 n (%)
  TEAE: Lipoma NOS: 0 n (%)
  TEAE: Lower Respiratory Tract Signs and Symptoms: 1 (<1%) n (%)
  TEAE: Lymphadenopathy: 1 (<1%) n (%)
  TEAE: Lymphangitis and Lymphatic Disorders NEC: 1 (<1%) n (%)
  TEAE: Meniere's Disease: 0 n (%)
  TEAE: Menorrhagia*: 1 (<1%) n (%)
  TEAE: Menstruation Irregular*: 1 (<1%) n (%)
  TEAE: Menstruation and Uterine Bleeding NEC*: 1 (<1%) n (%)
  TEAE: Menstruation with Decreased Bleeding*: 0 n (%)
  TEAE: Menstruation with Increased Bleeding*: 1 (<1%) n (%)
  TEAE: Mental Disorders NEC: 1 (<1%) n (%)
  TEAE: Mental Status Changes: 1 (<1%) n (%)
  TEAE: Metabolism and Nutrition Disorders: 10 (4%) n (%)
  TEAE: Middle Ear Disorders NEC: 0 n (%)
  TEAE: Motion Sickness: 1 (<1%) n (%)
  TEAE: Myocardial Infarction: 0 n (%)
  TEAE: Nail and Nail Bed Conditions (Excl Infections and Infestations): 1 (<1%) n (%)
  TEAE: Nasal Congestion and Inflammations: 1 (<1%) n (%)
  TEAE: Neoplasms Benign Site Unspecified NEC: 1 (<1%) n (%)
  TEAE: Neoplasms Benign, Malignant and Unspecified (Incl Cysts and Polyps): 6 (2%) n (%)
  TEAE: Normal Pregnancy, Labour and Delivery*: 0 n (%)
  TEAE: Ocular Disorders NEC: 1 (<1%) n (%)
  TEAE: Ocular Nerve and Muscle Disorders: 2 (<1%) n (%)
  TEAE: Oedema NEC: 3 (1%) n (%)
  TEAE: Oedema NOS: 1 (<1%) n (%)
  TEAE: Oedema Peripheral: 2 (<1%) n (%)
  TEAE: Ovarian Cancer NOS*: 0 n (%)
  TEAE: Ovarian Cystadenofibroma*: 1 (<1%) n (%)
  TEAE: Ovarian Neoplasms Benign*: 1 (<1%) n (%)
  TEAE: Ovarian Neoplasms Malignant (Excl Germ Cell)*: 0 n (%)
  TEAE: Pain NOS: 1 (<1%) n (%)
  TEAE: Pain and Discomfort NEC: 7 (3%) n (%)
  TEAE: Palpitations: 2 (<1%) n (%)
  TEAE: Panic Attack: 1 (<1%) n (%)
  TEAE: Panic Symptoms: 1 (<1%) n (%)
  TEAE: Papulosquamous Conditions: 1 (<1%) n (%)
  TEAE: Paranasal Sinus Disorders (Excl Infections and Neoplasms): 3 (1%) n (%)
  TEAE: Paranasal Sinus Hypersecretion: 0 n (%)
  TEAE: Partial Vision Loss: 1 (<1%) n (%)
  TEAE: Pelvic Pain NOS: 2 (<1%) n (%)
  TEAE: Penile Disorders NEC (Excl Erection and Ejaculation)*: 1 (1%) n (%)
  TEAE: Penile Haemorrhage*: 1 (1%) n (%)
  TEAE: Perception Disturbances: 1 (<1%) n (%)
  TEAE: Peripheral Embolism NOS: 1 (<1%) n (%)
  TEAE: Peripheral Embolism and Thrombosis: 1 (<1%) n (%)
  TEAE: Peripheral Vascular Disorders NEC: 0 n (%)
  TEAE: Pharyngitis: 3 (1%) n (%)
  TEAE: Polydipsia: 1 (<1%) n (%)
  TEAE: Polyuria: 1 (<1%) n (%)
  TEAE: Posterior Capsule Opacification: 1 (<1%) n (%)
  TEAE: Postnasal Drip: 1 (<1%) n (%)
  TEAE: Pregnancy NOS*: 0 n (%)
  TEAE: Pregnancy, Puerperium and Perinatal Conditions: 0 n (%)
  TEAE: Premenopause*: 1 (<1%) n (%)
  TEAE: Premenstrual Syndrome*: 0 n (%)
  TEAE: Productive Cough: 0 n (%)
  TEAE: Prostate and Seminal Vesicles Infections and Inflammations*: 1 (1%) n (%)
  TEAE: Prostatitis*: 1 (1%) n (%)
  TEAE: Proteinuria: 0 n (%)
  TEAE: Pruritus NEC: 1 (<1%) n (%)
  TEAE: Pruritus NOS: 1 (<1%) n (%)
  TEAE: Psoriasis: 1 (<1%) n (%)
  TEAE: Psychiatric Disorders: 17 (6%) n (%)
  TEAE: Psychotic Disorder NEC: 1 (<1%) n (%)
  TEAE: Psychotic Disorder NOS: 1 (<1%) n (%)
  TEAE: Purine Metabolism Disorders NEC: 0 n (%)
  TEAE: Pyrexia: 1 (<1%) n (%)
  TEAE: Rash Macular: 2 (<1%) n (%)
  TEAE: Rash NOS: 2 (<1%) n (%)
  TEAE: Rashes, Eruptions and Exanthems NEC: 4 (1%) n (%)
  TEAE: Rate and Rhythm Disorders NEC: 2 (<1%) n (%)
  TEAE: Refractive Errors NOS: 0 n (%)
  TEAE: Refractive and Accommodative Disorders: 0 n (%)
  TEAE: Renal Lithiasis: 0 n (%)
  TEAE: Renal and Urinary Disorders: 4 (1%) n (%)
  TEAE: Reproductive System and Breast Disorders: 12 (4%) n (%)
  TEAE: Reproductive Tract Signs and Symptoms NEC: 2 (<1%) n (%)
  TEAE: Respiratory Tract Congestion: 1 (<1%) n (%)
  TEAE: Respiratory Tract Disorders NEC: 1 (<1%) n (%)
  TEAE: Respiratory, Thoracic and Mediastinal Disorders: 18 (6%) n (%)
  TEAE: Retinal Detachment: 0 n (%)
  TEAE: Retinal Structural Change, Deposit and Degeneration: 0 n (%)
  TEAE: Rhinitis Allergic NOS: 1 (<1%) n (%)
  TEAE: Rhinitis NOS: 0 n (%)
  TEAE: Rhinitis Seasonal: 0 n (%)
  TEAE: Rosacea: 0 n (%)
  TEAE: Rosaceas: 0 n (%)
  TEAE: Seasonal Allergy: 1 (<1%) n (%)

Source: patent publication US20070093520A1, “Method of treatment of diarrhea-predominant irritable bowel syndrome in a subject” (priority 2005, published 2007)
